Assay results: patent publication US20240209004A1, “BORIC ACID DERIVATIVE ACTING AS Beta-LACTAMASE INHIBITOR” (TUOJIE BIOTECH (SHANGHAI) CO., LTD., priority 2021, published 2024)
≈ marks a conversion by molar mass, not a printed value. Like-named read-outs stand apart in the source and are kept apart here.

How the values were obtained:
Assay type in all cases: cell-based
[1] = test system: Escherichia coli ARLG-2829 (Urine); assay: MIC of β-lactamase inhibitors in the presence of antibiotic (Test Example 1); conditions: in the presence of Cefepime (8 ug/mL)
Protocol: (§1) • 1) The antibiotics cefepime and biapenem (purchased from MCE Inc.).
(§2) The biosafety cabinet was sterilized with ultraviolet light for 30 min. Glycerol tubes were taken out of a −80° C. freezer, and streaks were gently formed in the glycerol tubes using inoculating loops. Bacteria were inoculated onto MHIIA solid plates. The plates were incubated overnight in a 37° C. incubator.
(§3) 30 μL of compound stock solution was added to column 1 of a 96-well v-bottom plate, and DMSO was added to columns 2-10. Subsequently, 15 μL was transferred from column 1 to column 2 using a pipette and well mixed gently, and then 15 μL of solution was transferred from column 2 to column 3: the serial dilution process proceeded to column 10 (200×β-lactamase inhibitor working solutions were prepared). The two antibiotics were diluted with corresponding solvents to form 1.6 mg/mL solutions.
(§4) 1 μL of 200×B-lactamase inhibitor solution and 1 μL of 1.6 mg/mL antibiotic were added to a new 96-well round-bottom plate. The plate that had been incubated overnight was taken out of the incubator, and several monoclones were picked into normal saline using an inoculating loop. The bacterial solution was adjusted to a concentration of about 1.0×10^8CFU/mL and diluted 200-fold with medium, and 198 μL of the resulting bacterial solution was added to the test plate. The test plate was incubated in a 37° C.incubator for 18-24 h. The 96-well plate that had been incubated for 20 h was taken out of the incubator. The concentration that prevented visible bacterial growth was defined as the minimum inhibitory concentration.

[2] = test system: Klebsiella pneumoniae ATCC BAA-1705; assay: as above
Protocol: as §1, §2, §3, §4

[3] = test system: Klebsiella pneumoniae ATCC BAA-2472; assay: as above
Protocol: as §1, §2, §3, §4

[4] = test system: cefepime-resistant Acinetobacter baumannii; assay: MIC in combination with cefepime for drug-resistant bacteria (Test Example 2); conditions: Acinetobacter baumannii, with CPM 8 μg/mL, read-out: concentration for achieving a bacteriostatic effect where the CPM MIC is fixed at 8 μg/mL
Protocol: as §2
as §3, with “3;” for “3:”, “antibiotic was” for “two antibiotics were”, “with a” for “with”, “solvent” for “solvents”, “form a” for “form”, “solution.” for “solutions.”

[5] = test system: cefepime-resistant Escherichia coli; assay: as above; conditions: for MIC: Escherichia coli, with CPM 8 μg/mL, read-out: concentration for achieving a bacteriostatic effect where the CPM MIC is fixed at 8 μg/mL
Protocol: as §2
as §3, with “3;” for “3:”, “antibiotic was” for “two antibiotics were”, “with a” for “with”, “solvent” for “solvents”, “form a” for “form”, “solution.” for “solutions.”

[6] = test system: cefepime-resistant Klebsiella pneumoniae; assay: as above; conditions: for MIC: Klebsiella pneumoniae, with CPM 8 μg/mL, read-out: concentration for achieving a bacteriostatic effect where the CPM MIC is fixed at 8 μg/mL
Protocol: as §2
as §3, with “3;” for “3:”, “antibiotic was” for “two antibiotics were”, “with a” for “with”, “solvent” for “solvents”, “form a” for “form”, “solution.” for “solutions.”

[7] = test system: cefepime-resistant Pseudomonas aeruginosa; assay: as above; conditions: read-out: concentration for achieving a bacteriostatic effect where the CPM MIC is fixed at 8 μg/mL
Protocol: as §2
as §3, with “3;” for “3:”, “antibiotic was” for “two antibiotics were”, “with a” for “with”, “solvent” for “solvents”, “form a” for “form”, “solution.” for “solutions.”

[8] = test system: cefepime-resistant Klebsiella pneumoniae expressing different types of β-lactamases; assay: microbe, parasite or virus in culture; conditions: for MIC: Klebsiella pneumoniae; for MIC, Cefepime + compound (8 ug/ml): inhibitor at 8 ug/ml
Protocol: as §2
as §3, with “antibiotic was” for “two antibiotics were”, “with a” for “with”, “solvent” for “solvents”, “form a” for “form”, “solution.” for “solutions.”

[9] = in the presence of Biapenem (8 ug/mL)
[10] = in the presence of Cefepime (8 ug/mL)
[11] = summary in words of Test Example 2

With `O=C(O)c1c(F)ccc2c1OB(O)[C@@H]1C[C@H]21` [QPX-7728] the Minimum inhibitory concentration [1] was 1 µg/mL, the Minimum inhibitory concentration [2, 9] was no more than 0.03125 µg/mL and the Minimum inhibitory concentration [2, 10] was 0.25 µg/mL. The Minimum inhibitory concentration [3, 9] was 8 µg/mL, the Minimum inhibitory concentration [3, 10] was 16 µg/mL and the MIC ([4]; strain FDA-CDC AR-BANK#0033) was greater than 16 µg/mL. It also gave an MIC ([4]; strain FDA-CDC AR-BANK#0035) greater than 16 µg/mL, an MIC ([4]; strain FDA-CDC AR-BANK#0078) of 16 µg/mL and an MIC ([5]; strain FDA-CDC AR-BANK#0055) of 0.5 µg/mL. For the same compound, the MIC ([5]; strain FDA-CDC AR-BANK#0114) was no more than 0.0156 µg/mL, the MIC ([5]; strain FDA-CDC AR-BANK#0370) was 0.125 µg/mL and the MIC ([5]; strain FDA-CDC AR-BANK#0371) was no more than 0.0156 µg/mL. For the same compound, the “restoring to cefepime antibacterial activity against cefepime-resistant Escherichia coli” value [5, 11] was “significantly restore to cefepime antibacterial activity”, the MIC ([6]; strain FDA-CDC AR-BANK#0003) was 0.0312 µg/mL and the MIC ([6]; strain FDA-CDC AR-BANK#0076) was 0.25 µg/mL. It also gave an MIC ([6]; strain FDA-CDC AR-BANK#0080) of 0.5 µg/mL, an MIC ([6]; strain FDA-CDC AR-BANK#0126) of no more than 0.0156 µg/mL and an MIC ([6]; strain FDA-CDC AR-BANK#0158) of 0.5 µg/mL. The “restoring to cefepime antibacterial activity against cefepime-resistant Klebsiella pneumoniae” value [6, 11] was “significantly restore to cefepime antibacterial activity”, the MIC ([7]; strain FDA-CDC AR-BANK#0246, with CPM 8 μg/mL) was greater than 16 µg/mL and the MIC ([7]; strain FDA-CDC AR-BANK#0439, with CPM 8 μg/mL) was greater than 16 µg/mL. It also gave an MIC ([7]; strain FDA-CDC AR-BANK#0441, with CPM 8 μg/mL) of 2 µg/mL, an MIC ([7]; strain FDA-CDC AR-BANK#0444, with CPM 8 μg/mL) of 4 µg/mL and an MIC ([8]; ATCCBAA1705, read-out: MIC, single substance (1-1-Na, QPX7728, CPM), strain ATCC BAA-1705, KPC-2, TEM, SHV, Class A) of 32 µg/mL (≈ 144 µM). The MIC ([8]; ATCCBAA1898, read-out: MIC, single substance (1-1-Na, QPX7728, CPM), strain ATCC BAA-1898, KPC-2, Class A) was 32 µg/mL (≈ 144 µM), the MIC ([8]; ATCCBAA1899, read-out: MIC, single substance (1-1-Na, QPX7728, CPM), strain ATCC BAA-1899, KPC-2, Class A) was 32 µg/mL (≈ 144 µM) and the MIC ([8]; ATCCBAA2343, read-out: MIC, single substance (1-1-Na, QPX7728, CPM), strain ATCC BAA-2343, KPC, Class A) was 32 µg/mL (≈ 144 µM). The MIC ([8]; ATCCBAA2470, read-out: MIC, single substance (1-1-Na, QPX7728, CPM), strain ATCC BAA-2470, NDM-1, Class B) was 16 µg/mL (≈ 72.1 µM), the MIC ([8]; read-out: MIC, single substance (1-1-Na, QPX7728, CPM), strain ARLG-1127 (Urine), KPC, KPC-3, TEM, TEM-1, Class A) was 64 µg/mL (≈ 288 µM) and the MIC ([8]; read-out: MIC, single substance (1-1-Na, QPX7728, CPM), strain ARLG-1195, CTM-1 group, SHV, NDM, Class A, B) was 32 µg/mL (≈ 144 µM). The MIC ([8]; read-out: MIC, single substance (1-1-Na, QPX7728, CPM), strain ARLG-1196, CTM-1 group, SHV, NDM, TEM, Class A, B) was 32 µg/mL (≈ 144 µM), the “MIC, Cefepime + compound (8 ug/ml)” value ([8]; strain ARLG-1127 (Urine), KPC, KPC-3, TEM, TEM-1, Class A) was no more than 0.125 µg/mL and the “MIC, Cefepime + compound (8 ug/ml)” value ([8]; strain ARLG-1195, CTM-1 group, SHV, NDM, Class A, B) was no more than 0.125 µg/mL. For the same compound, the “MIC, Cefepime + compound (8 ug/ml)” value ([8]; strain ARLG-1196, CTM-1 group, SHV, NDM, TEM, Class A, B) was no more than 0.125 µg/mL, the “MIC, Cefepime + compound (8 ug/ml)” value ([8]; strain ATCC BAA-1705, KPC-2, TEM, SHV, Class A) was no more than 0.125 µg/mL and the “MIC, Cefepime + compound (8 ug/ml)” value ([8]; strain ATCC BAA-1898, KPC-2, Class A) was less than 0.125 µg/mL. The “MIC, Cefepime + compound (8 ug/ml)” value ([8]; strain ATCC BAA-1899, KPC-2, Class A) was less than 0.125 µg/mL, the “MIC, Cefepime + compound (8 ug/ml)” value ([8]; strain ATCC BAA-2343, KPC, Class A) was no more than 0.125 µg/mL and the “MIC, Cefepime + compound (8 ug/ml)” value ([8]; strain ATCC BAA-2470, NDM-1, Class B) was no more than 0.125 µg/mL. For the same compound, the “restore to cefepime antibacterial activity against cefepime-resistant Klebsiella pneumoniae” value ([8]; summary in words of Test Example 3 (sentence runs over b277-b278)) was “significantly”.
